Measured values: patent publication US9993494B2, “Compositions and methods for treating fibrotic disease” (eFFECTOR Therapeutics, Inc., priority 2014, dated 2018)

Tested on: normal human lung fibroblasts
Test: Ribosomal profiling: translational efficiency in TGFβ-treated fibroblasts
Assay type: cell-based
Method: Ribosomal profiling allows for measurement of changes in transcription and translation on a genome-wide basis accompanying TGFβ-dependent transformation of fibroblasts to myofibroblasts. Ribosomal profiles of the TGFβ-treated fibroblasts from Example 1 (about 6×10^6 cells/10 cm plate) were prepared and analyzed for changes in translational efficiencies with respect to potential disease-associated cellular changes accompanying this TGFβ-induced transformation.
Briefly, cells were washed with cold PBS supplemented with cycloheximide and lysed with 1× mammalian cell lysis buffer for 10 minutes on ice. Lysates were clarified by centrifugation for 10 minutes at 14,000 rpm and supernatants were collected. Cell lysates were processed to generate ribosomal protected fragments and total mRNA according to the instructions included with the ARTseq Ribosome Profiling Kit (Illumina, San Diego, Calif.). Sequencing of total RNA (RNA) and of ribosome-protected fragments of RNA (RPF) was carried out using RNA-Seq methodology according to the manufacturer's instructions (Illumina). To analyze the ribosomal profiles, RNA-Seq reads were processed with tools from the FASTX-Toolkit (fastq_quality_trimmer, fastx_clipper and fastx_trimmer). Unprocessed and processed reads were evaluated for a variety of quality measures using FastQC, and processed reads were mapped to the human genome using TopHat (see, e.g., Trapnell et al., Bioinformatics 25:1105, 2009). Gene-by-gene assessment of the number of fragments strictly and uniquely mapping to the coding region of each gene was conducted using HTSeq-count, a component of the HTSeq package. […] Genes with low counts in either RPF or RNA were excluded from differential analyses. Pathway and network analyses of differential data were conducted using Ingenuity Pathway Analysis (IPA).

## TGFβ
ENSG00000100784, 5 replicates
  Log2 TE RPS6KA5: −1.431
ENSG00000101639, 5 replicates
  Log2 TE CEP192: −1.192
ENSG00000101639, Control vs. TGFβ
  change in translational profile of CEP192 caused by TGFβ: C (C = <−1.0 to −1.5)
ENSG00000101935, Control vs. TGFβ
  change in translational profile of AMMECR1 caused by TGFβ: D (D = <1.0 to 1.5)
ENSG00000102007, Control vs. TGFβ
  change in translational profile of PLP2 caused by TGFβ: D (D = <1.0 to 1.5)
ENSG00000104205, 5 replicates
  Log2 TE SGK3: −1.011
ENSG00000104321, 5 replicates
  Log2 TE TRPA1: −1.256
ENSG00000104408, 5 replicates
  Log2 TE EIF3E: 1.469
ENSG00000104408, Control vs. TGFβ
  change in translational profile of EIF3E caused by TGFβ: E (E = <1.5 to 2.5)
ENSG00000104529, 5 replicates
  Log2 TE EEF1D: 1.619
ENSG00000104529, Control vs. TGFβ
  change in translational profile of EEF1D caused by TGFβ: E (E = <1.5 to 2.5)
ENSG00000104979, Control vs. TGFβ
  change in translational profile of C19orf53 caused by TGFβ: D (D = <1.0 to 1.5)
ENSG00000105193, 5 replicates
  Log2 TE RPS16: 1.989
ENSG00000105372, 5 replicates
  Log2 TE RPS19: 1.55
ENSG00000105373, 5 replicates
  Log2 TE GLTSCR2: 2.067
ENSG00000105373, Control vs. TGFβ
  change in translational profile of GLTSCR2 caused by TGFβ: E (E = <1.5 to 2.5)
ENSG00000105514, Control vs. TGFβ
  change in translational profile of RAB3D caused by TGFβ: B (B = <−1.5 to −2.5)
ENSG00000105640, 5 replicates
  Log2 TE RPL18A: 1.669
ENSG00000105640, Control vs. TGFβ
  change in translational profile of RPL18A caused by TGFβ: E (E = <1.5 to 2.5)
ENSG00000105664, 5 replicates
  Log2 TE COMP: 1.317
ENSG00000105664, Control vs. TGFβ
  change in translational profile of COMP caused by TGFβ: E (E = <1.5 to 2.5)
ENSG00000106415, 5 replicates
  Log2 TE GLCCI1: −1.842
ENSG00000106415, Control vs. TGFβ
  change in translational profile of GLCCI1 caused by TGFβ: B (B = <−1.5 to −2.5)
ENSG00000106789, 5 replicates
  Log2 TE CORO2A: 1.212
ENSG00000106789, Control vs. TGFβ
  change in translational profile of CORO2A caused by TGFβ: E (E = <1.5 to 2.5)
ENSG00000107623, Control vs. TGFβ
  change in translational profile of GDF10 caused by TGFβ: C (C = <−1.0 to −1.5)
ENSG00000108107, 5 replicates
  Log2 TE RPL28: 1.869
ENSG00000108107, Control vs. TGFβ
  change in translational profile of RPL28 caused by TGFβ: E (E = <1.5 to 2.5)
ENSG00000108298, 5 replicates
  Log2 TE RPL19: 1.075
ENSG00000108298, Control vs. TGFβ
  change in translational profile of RPL19 caused by TGFβ: D (D = <1.0 to 1.5)
ENSG00000108551, 5 replicates
  Log2 TE RASD1: 1.836
ENSG00000108551, Control vs. TGFβ
  change in translational profile of RASD1 caused by TGFβ: E (E = <1.5 to 2.5)
ENSG00000108932, 5 replicates
  Log2 TE SLC16A6: −1.3497
ENSG00000109065, Control vs. TGFβ
  change in translational profile of NAT9 caused by TGFβ: D (D = <1.0 to 1.5)
ENSG00000109452, 5 replicates
  Log2 TE INPP4B: −1.569
ENSG00000109475, 5 replicates
  Log2 TE RPL34: 1.608
ENSG00000109475, Control vs. TGFβ
  change in translational profile of RPL34 caused by TGFβ: E (E = <1.5 to 2.5)
ENSG00000109674, 5 replicates
  Log2 TE NEIL3: −2.63
ENSG00000109846, 5 replicates
  Log2 TE CRYAB: 1.107
ENSG00000109846, Control vs. TGFβ
  change in translational profile of CRYAB caused by TGFβ: D (D = <1.0 to 1.5)
ENSG00000110700, 5 replicates
  Log2 TE RPS13: 1.539
ENSG00000111057, 5 replicates
  Log2 TE KRT18: 1.811
ENSG00000111640, 5 replicates
  Log2 TE GAPDH: 1.263
ENSG00000111640, Control vs. TGFβ
  change in translational profile of GAPDH caused by TGFβ: E (E = <1.5 to 2.5)
ENSG00000111678, 5 replicates
  Log2 TE C12orf57: 1.173
ENSG00000111678, Control vs. TGFβ
  change in translational profile of C12orf57 caused by TGFβ: D (D = <1.0 to 1.5)
ENSG00000112276, 5 replicates
  Log2 TE BVES: 1.173
ENSG00000112306, 5 replicates
  Log2 TE RPS12: 1.642
ENSG00000112559, Control vs. TGFβ
  change in translational profile of MDFI caused by TGFβ: A (A = <−2.5)
ENSG00000113070, 5 replicates
  Log2 TE HBEGF: 1.088
ENSG00000113070, Control vs. TGFβ
  change in translational profile of HBEGF caused by TGFβ: D (D = <1.0 to 1.5)
ENSG00000113272, 5 replicates
  Log2 TE THG1L: 1.155
ENSG00000114391, 5 replicates
  Log2 TE RPL24: 1.304
ENSG00000114391, Control vs. TGFβ
  change in translational profile of RPL24 caused by TGFβ: E (E = <1.5 to 2.5)
ENSG00000114942, 5 replicates
  Log2 TE EEF1B2: 1.434
ENSG00000114942, Control vs. TGFβ
  change in translational profile of EEF1B2 caused by TGFβ: E (E = <1.5 to 2.5)
ENSG00000115267, 5 replicates
  Log2 TE IFIH1: −1.416
ENSG00000115267, Control vs. TGFβ
  change in translational profile of IFIH1 caused by TGFβ: B (B = <−1.5 to −2.5)
ENSG00000115268, 5 replicates
  Log2 TE RPS15: 1.3
